In patent publication US8106091B2, “Inhibitors of IKK-beta serine-threonine protein kinase” (Chroma Therapeutics Ltd., priority 2006, dated 2012):

Experiments:
THP-1 cells = assay: LPS-stimulation of THP-1 cells, TNF-α release; format: cell-based; details: Homo sapiens, LPS 1 μg/ml, 6 hrs, inhibitor added 2 hrs before, read-out: Inhibitor activity versus THP-1 TNFα release
Description: LPS-Stimulation of THP-1 Cells
THP-1 cells were plated in 100 μl at a density of 4×10^4 cells/well in V-bottomed 96 well tissue culture treated plates and incubated at 37° C. in 5% CO2 for 16 hrs. 2 hrs after the addition of the inhibitor in 100 μl of tissue culture media, the cells were stimulated with LPS (E coli strain 005:B5, Sigma) at a final concentration of 1 μg/ml and incubated at 37° C. in 5% CO2 for 6 hrs. TNF-α levels were measured from cell-free supernatants by sandwich ELISA (R&D Systems #QTA00B)

IKBKB (IKKβ) = target: T1, IKBKB (IKKβ) (Homo sapiens, UniProt O14920); assay: IKKβ enzyme assay (Z'-LYTE, Invitrogen); format: biochemical; details: ATP at or close to Km; read-out: Inhibitor activity versus IKKβ
T1 construct: purchased Invitrogen (Paisley, UK)
T1 sequence (O14920 1-756): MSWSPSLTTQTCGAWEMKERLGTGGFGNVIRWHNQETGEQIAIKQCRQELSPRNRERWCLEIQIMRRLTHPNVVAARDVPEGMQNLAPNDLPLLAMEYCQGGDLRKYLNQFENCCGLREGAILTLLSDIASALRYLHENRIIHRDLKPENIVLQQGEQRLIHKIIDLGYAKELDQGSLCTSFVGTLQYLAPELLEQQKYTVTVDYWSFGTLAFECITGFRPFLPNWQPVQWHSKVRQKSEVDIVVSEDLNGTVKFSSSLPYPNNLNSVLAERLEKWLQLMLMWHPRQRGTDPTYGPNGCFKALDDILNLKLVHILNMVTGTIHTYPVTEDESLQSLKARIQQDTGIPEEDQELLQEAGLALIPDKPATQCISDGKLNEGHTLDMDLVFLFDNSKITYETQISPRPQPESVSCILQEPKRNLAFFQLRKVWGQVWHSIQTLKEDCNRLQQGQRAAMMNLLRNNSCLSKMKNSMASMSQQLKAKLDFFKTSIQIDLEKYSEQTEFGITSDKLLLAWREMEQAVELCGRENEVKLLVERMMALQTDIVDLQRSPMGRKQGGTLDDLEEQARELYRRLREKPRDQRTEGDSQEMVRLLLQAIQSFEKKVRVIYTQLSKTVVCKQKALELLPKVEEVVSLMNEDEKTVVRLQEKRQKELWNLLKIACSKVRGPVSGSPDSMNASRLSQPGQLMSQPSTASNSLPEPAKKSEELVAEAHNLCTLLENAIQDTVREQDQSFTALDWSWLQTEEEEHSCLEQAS
Description: The ability of compounds to inhibit IKKβ kinase activity was measured in an assay performed by Invitrogen (Paisley, UK). The Z′-LYTE™ biochemical assay employs a fluorescence-based, coupled-enzyme format and is based on the differential sensitivity of phosphorylated and non-phosphorylated peptides to proteolytic cleavage. The peptide substrate is labelled with two fluorophores—one at each end—that make up a FRET pair. In the primary reaction, the kinase transfers the gamma-phosphate of ATP to a single serine or threonine residue in a synthetic FRET-peptide. In the secondary reaction, a site-specific protease recognizes and cleaves non-phosphorylated FRET-peptides. Phosphorylation of FRET-peptides suppresses cleavage by the Development Reagent. Cleavage disrupts FRET between the donor (i.e., coumarin) and acceptor (i.e. fluorescein) fluorophores on the FRET-peptide, whereas uncleaved, phosphorylated FRET-peptides maintain FRET. A […] method, which calculates the ratio (the Emission Ratio) of donor emission to acceptor emission after excitation of the donor fluorophore at 400 nm, is used to quantitate reaction progress.
The final 10 μL Kinase Reaction consists of 0.9-8.0 ng IKBKB (IKKβ), 2 μM Ser/Thr 05 Peptide and ATP in 50 mM HEPES pH 7.5, 0.01% BRIJ-35, 10 mM MgCl2, 1 mM EGTA. The assay is performed at an ATP concentration at, or close to the Km. After the 60 minute Kinase Reaction incubation at room temperature, 5 μL of a 1:128 dilution of Development Reagent is added. The assay plate is incubated for a further 60 minutes at room temperature and read on a fluorescence plate reader.
Duplicate data points are generated from a ⅓ log dilution series of a stock solution of test compound in DMSO. Nine dilutions steps are made from a top concentration of 10 μM, and a ‘no compound’ blank is included. Data is collected and analysed using XLfit software from IDBS. The dose response curve is curve fitted to model number 205 (sigmoidal dose-response model). From the curve generated, the concentration giving 50% inhibition is determined and reported.

human whole blood = assay: LPS-stimulation of human whole blood, TNF-α release; format: cell-based; details: LPS 100 ng/ml, 6 hrs, inhibitor added 2 hrs before, read-out: Inhibitor activity versus human whole blood TNFα release
Description: LPS-Stimulation of Human Whole Blood
Whole blood was taken by venous puncture using heparinised vacutainers (Becton Dickinson) and diluted in an equal volume of RPMI1640 tissue culture media (Sigma). 100 μl was plated in V-bottomed 96 well tissue culture treated plates. 2 hrs after the addition of the inhibitor in 100 μl of RPMI1640 media, the blood was stimulated with LPS (E coli strain 005:B5, Sigma) at a final concentration of 100 ng/ml and incubated at 37° C. in 5% CO2 for 6 hrs. TNF-α levels were measured from cell-free supernatants by sandwich ELISA (R&D Systems #QTA00B)

NC(=O)Nc1sc(-c2ccc(OCC[C@@H](N)C(=O)OC3CCCC3)cc2)cc1C(N)=O [Example 1, Cyclopentyl O-{4-[4-carbamoyl-5-(carbamoylamino)-2-thienyl]phenyl}-D-homoserinate] was tested, and the IC50 (THP-1 cells) was less than 1000 nM, the IC50 (IKBKB (IKKβ)) was less than 1000 nM and the IC50 (human whole blood) was 1000 to 5000 nM.

Work on NC(=O)Nc1sc(-c2ccc(OCCC[C@H](N)C(=O)OC3CCCC3)cc2)cc1C(N)=O [Example 3, Cyclopentyl 5-{4-[4-carbamoyl-5-(carbamoylamino)-2-thienyl]phenoxy}-L-norvalinate] yielded an IC50 (THP-1 cells) of 1000 to 5000 nM, an IC50 (IKBKB (IKKβ)) of less than 1000 nM and an IC50 (human whole blood) greater than 5000 nM.

Cc1cc(OCC[C@H](N)C(=O)OC2CCCC2)ccc1-c1cc(C(N)=O)c(NC(N)=O)s1 [Example 5, Cyclopentyl O-{4-[4-carbamoyl-5-(carbamoylamino)-2-thienyl]-3-methylphenyl}-L-homoserinate] gave an IC50 (THP-1 cells) of less than 1000 nM, an IC50 (IKBKB (IKKβ)) of less than 1000 nM and an IC50 (human whole blood) greater than 5000 nM.

With Cc1cc(-c2cc(C(N)=O)c(NC(N)=O)s2)ccc1OCC[C@H](N)C(=O)OC1CCCC1 [Example 6, Cyclopentyl O-{4-[4-carbamoyl-5-(carbamoylamino)-2-thienyl]-2-methylphenyl}-L-homoserinate] the IC50 (THP-1 cells) was less than 1000 nM, the IC50 (IKBKB (IKKβ)) was less than 1000 nM and the IC50 (human whole blood) was greater than 5000 nM.

NC(=O)Nc1sc(-c2ccc(OCC[C@H](N)C(=O)OC3CCCC3)cc2Cl)cc1C(N)=O [Example 7, Cyclopentyl O-{4-[4-carbamoyl-5-(carbamoylamino)-2-thienyl]-3-chlorophenyl}-L-homoserinate] showed an IC50 (THP-1 cells) of less than 1000 nM, an IC50 (IKBKB (IKKβ)) of less than 1000 nM and an IC50 (human whole blood) greater than 5000 nM.

Work on NC(=O)Nc1sc(-c2ccc(OCC[C@H](N)C(=O)OC3CCCC3)c(Cl)c2)cc1C(N)=O [Example 8, Cyclopentyl O-{4-[4-carbamoyl-5-(carbamoylamino)-2-thienyl]-2-chlorolphenyl}-L-homoserinate] yielded an IC50 (THP-1 cells) of 1000 to 5000 nM, an IC50 (IKBKB (IKKβ)) of less than 1000 nM and an IC50 (human whole blood) greater than 5000 nM.

Work on NC(=O)Nc1sc(-c2ccc(/C=C/C[C@H](N)C(=O)OC3CCCC3)cc2)cc1C(N)=O [Example 9, Cyclopentyl (2S,4E)-2-amino-5-{4-[4-carbamoyl-5-(carbamoylamino)-2-thienyl]phenyl}pent-4-enoate] yielded an IC50 (THP-1 cells) of less than 1000 nM, an IC50 (IKBKB (IKKβ)) of less than 1000 nM and an IC50 (human whole blood) of less than 1000 nM.

For NC(=O)Nc1sc(-c2ccc(/C=C/C[C@@H](N)C(=O)OC3CCCC3)cc2)cc1C(N)=O [Example 10, Cyclopentyl (2R,4E)-2-amino-5-{4-[4-carbamoyl-5-(carbamoylamino)-2-thienyl]phenyl}pent-4-enoate], the IC50 (THP-1 cells) was less than 1000 nM, the IC50 (IKBKB (IKKβ)) was less than 1000 nM and the IC50 (human whole blood) was less than 1000 nM.

NC(=O)Nc1sc(-c2ccc(CCC[C@H](N)C(=O)OC3CCCC3)cc2)cc1C(N)=O [Example 11, Cyclopentyl 5-{4-[4-carbamoyl-5-(carbamoylamino)-2-thienyl]phenyl}-L-norvalinate] gave an IC50 (THP-1 cells) of less than 1000 nM, an IC50 (IKBKB (IKKβ)) of less than 1000 nM and an IC50 (human whole blood) of 1000 to 5000 nM.

For NC(=O)Nc1sc(-c2ccc(/C=C/C[C@H](N)C(=O)OC3CCCC3)cc2Cl)cc1C(N)=O [Example 13, Cyclopentyl (2S,4E)-2-amino-5-{4-[4-carbamoyl-5-(carbamoylamino)-2-thienyl]-3-chlorophenyl}pent-4-enoate], the IC50 (THP-1 cells) was less than 1000 nM, the IC50 (IKBKB (IKKβ)) was less than 1000 nM and the IC50 (human whole blood) was 1000 to 5000 nM.

For Cc1cc(-c2cc(C(N)=O)c(NC(N)=O)s2)ccc1/C=C/C[C@H](N)C(=O)OC1CCCC1 [Example 14, Cyclopentyl (2S,4E)-2-amino-5-{4-[4-carbamoyl-5-(carbamoylamino)-2-thienyl]-2-methylphenyl}pent-4-enoate], the IC50 (THP-1 cells) was less than 1000 nM, the IC50 (IKBKB (IKKβ)) was less than 1000 nM and the IC50 (human whole blood) was less than 1000 nM.

NC(=O)Nc1sc(-c2ccc(C#CC[C@H](N)C(=O)OC3CCCC3)cc2)cc1C(N)=O [Example 15, Cyclopentyl (2S)-2-amino-5-{4-[4-carbamoyl-5-(carbamoylamino)-2-thienyl]phenyl}pent-4-ynoate] gave an IC50 (THP-1 cells) of 1000 to 5000 nM, an IC50 (IKBKB (IKKβ)) of less than 1000 nM and an IC50 (human whole blood) greater than 5000 nM.

Work on NC(=O)Nc1sc(-c2ccc(C[C@H](N)C(=O)OC3CCCC3)cc2)cc1C(N)=O [Example 16, Cyclopentyl 4-[4-carbamoyl-5-(carbamoylamino)-2-thienyl]-L-phenylalaninate] yielded an IC50 (THP-1 cells) of less than 1000 nM, an IC50 (IKBKB (IKKβ)) of less than 1000 nM and an IC50 (human whole blood) of 1000 to 5000 nM.

For NC(=O)Nc1sc(-c2ccc(/C=C\C[C@H](N)C(=O)OC3CCCC3)cc2)cc1C(N)=O [Example 18, Cyclopentyl (2S,4Z)-2-amino-5-{4-[4-carbamoyl-5-(carbamoylamino)-2-thienyl]phenyl}pent-4-enoate], the IC50 (THP-1 cells) was 1000 to 5000 nM, the IC50 (IKBKB (IKKβ)) was less than 1000 nM and the IC50 (human whole blood) was 1000 to 5000 nM.

Work on NC(=O)Nc1sc(-c2ccc(N(CC[C@H](N)C(=O)OC3CCCC3)Cc3ccccc3)cc2)cc1C(N)=O [Example 21, Cyclopentyl (2S)-2-amino-4-(benzyl{4-[4-carbamoyl-5-(carbamoylamino)thiophen-2-yl]phenyl}amino)butanoate] yielded an IC50 (THP-1 cells) of 1000 to 5000 nM and an IC50 (IKBKB (IKKβ)) of less than 1000 nM.

Compound NC(=O)Nc1cc(-c2ccc(OCC[C@H](N)C(=O)OC3CCCC3)cc2)sc1C(N)=O [Example 23, Cyclopentyl O-{4-[5-carbamoyl-4-(carbamoylamino)-2-thienyl]phenyl}-L-homoserinate] has an IC50 (THP-1 cells) of 1000 to 5000 nM and an IC50 (IKBKB (IKKβ)) of less than 1000 nM.

Compound NC(=O)Nc1cc(-c2ccc(C[C@H](N)C(=O)OC3CCCC3)cc2)sc1C(N)=O [Example 24, Cyclopentyl 4-[5-carbamoyl-4-(carbamoylamino)-2-thienyl]-L-phenylalaninate] has an IC50 (THP-1 cells) greater than 5000 nM and an IC50 (IKBKB (IKKβ)) of less than 1000 nM.
